Laboratory results: patent publication US6287813A, “Antibiotic-based gene regulation system” (Cistronics Cell Technology GmbH, priority 1999, dated 2001)

Biological target: T1, PIT/PPIR system (Streptomyces coelicolor, UniProt Q9ADN3)
T1 construct: pMF156/pTWIN in CHO cells, PPIR-SEAP or GFP reporter
T1 sequence (Q9ADN3 1-252): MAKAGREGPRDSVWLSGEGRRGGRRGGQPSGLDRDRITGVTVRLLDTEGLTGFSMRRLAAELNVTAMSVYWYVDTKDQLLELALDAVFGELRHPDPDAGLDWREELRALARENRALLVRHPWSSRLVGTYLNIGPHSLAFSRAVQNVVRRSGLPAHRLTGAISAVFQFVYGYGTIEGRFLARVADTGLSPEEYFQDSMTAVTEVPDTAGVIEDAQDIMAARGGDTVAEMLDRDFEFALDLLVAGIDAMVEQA
Assay: SEAP reporter assay, stable CHO-PIT1/CHO-PIT2 transiently transfected with pMF172
Format: cell-based
Procedure: Chinese hamster ovary cells (CHO-K1, ATCC: CCL 61), Baby hamster kidney cells (BHK-21, ATCC: CRL-8544), and HeLa cells (ATCC: CRL-7923) as well as stable cell lines CHO-PIT1, CHO-PIT2, CHO-TWIN195, CHO-TWIN1108 and CHO-PIT1-SEAP were cultured as described before (Fussenegger et al., 1998, Nat. Biotechnol. 16,468-472) in the presence of appropriate antibiotics: G418 400 μg/ml; zeocin 100 μg/ml. Optimized CaPO4 protocols were used for high efficiency transient transfection of all cell lines (id). Transient transfected cells were routinely analyzed after 48 h for GFP or SEAP expression using fluorescence microscopy and p-nitrophenolphosphate-based light absorbance timecourse, respectively, as described before (Fussenegger et al., 1998, Nat. Biotechnol. 16, 468-472; Berger et al., 1988, Gene 66, 1-10 b). For construction of stable CHO-PIT and CHO-TWIN cell lines, CHO-K1 was cotransfected either with pMF156 or pTWIN1 and pSV2neo carrying the G418 resistance gene. CHO-PIT1-SEAP was constructed by cotransfection of pMF172 and pZeoSV2 (Invitrogen). For assessment of dose-response characteristics of PPIR -regulated gene expression, CHO-PIT1-SEAP were cultured at cell densities of 150,000/ml for 48 at various PI concentrations. The mixed populations were cloned using FACS-mediated single-cell-sorting (FACStar^Plus; Beckton Dickinson). Gel retardation assay were performed as described (Salah-Bey et al., 1995, supra) using Pip purified from an overproducing strain of E. coli. Pip (0.02 pmol) was titrated with a range of antibiotic concentrations in a reaction volume of 20 μl. Protein solutions were pre-incubated at room temperature for 15 min. in the absence or presence of PI or its derivative quinupristin in a buffer containing 10 mM Tris (pH 7.8), 10 mM MgCl2, 300 mM NaCl, 2 mM DTT and 10% glycerol. An EcoRI-HindII PPTR fragment (0.02 pmol) containing three Pip binding sites (radiolabelled using α-^32 P)dATP was added and incubated for 15 min. To minimize nonspecific protein binding and increase protein stability, 2 μg of poly dIdC and 20 μg BSA were included in the incubation mix. Protein-DNA complexes were separated on 5% polyacrylamide,TBE gels and visualized by autoradiography.
Five different sources of pristinamycin were used: The two therapeutic forms Pyostacin™ and Synercid™, pristinamycin discs, and the single compounds pristinamycin I (PI) and pristinamycin II (PII). Pyostacin™ pills (500 mg) were ground in a mortar and solubilized in DMSO or water at a stock concentration of 50 mg/ml. Synercid™ (RP 59500; Lot Nr. CB06253) was provided by Aventis in injection-ready vials containing 500 mg lyophilized antibiotic which was reconstituted in 5 ml of 5% glucose solution and frozen at -20° C. Individual pristinamycin compounds PI and PII (identical to virginiamycin M1 (VM1); Sigma ref. V2753) were solubilized in DMSO at a concentration of 50 mg/ml and kept at -20° C. Antibiotic discs containing 15 μg pristinamycin or virginiamycin (bioMerieux, ref. 54552; bioMerieux, ref. 54612) were soaked in 1 ml cell culture medium at 4i C for up to 24 h. Virginiamycin consists of virginiamnycin S1 (VS1), the PI analogue, and virginiamycin M1, which is identical in structure to PII (Barri re et al., 1994, supra). 2 μg/ml of streptogramin B was routinely used for regulation studies in cell culture. The concentration of individual streptogramin components was calculated based on their fixed 70:30 ratio (w/w; PII/VM1 /dalfopristin: PI/VS1 /quinupristin). For control experiments TET and doxycycline (DOX) were used either as discs (30 μg/disc, bioM.quadrature.rieux ref. 54882 (TET) and ref. 54172 (DOX)) or as powder (Sigma refs. T3383 and D9891).
Table 4: Pristinamycin I- (PI) dependent SEAP production of PIT- (PI-dependent transactivator) expressing stable cell lines CHO-PIT1 and CHO-PIT2 transiently transfected with the SEAP-encoding, PI-responsive reporter plasmid pMF172.
Table 5: Regulation potential of different streptogramins. […]

pristinamycin I [PI]
Induction factor (ratio of SEAP activity without PI to SEAP activity with PI) (CHO-PIT1): 13
SEAP Production (%) (CHO-PIT1 + pMF172, 48 h, 2 μg/ml of group B component, no streptogramin = 100): 8.06 ± 0.05%
SEAP Production (%) (CHO-PIT1 + pMF172, +PI 2 μg/ml, -PI = 100): 7.50 ± 2.32%
Induction factor (ratio of SEAP activity without PI to SEAP activity with PI) (CHO-PIT2): 8
SEAP Production (%) (CHO-PIT2 + pMF172, +PI 2 μg/ml, -PI = 100): 12.7 ± 3.57%
Reversibility of PI-responsive SEAP regulation (CHO-PIT derivatives, repeated cycles of addition and withdrawal): fully reversible
